The text below walks through data of patent US20170226081A1, “GLUCOSE TRANSPORT INHIBITORS” (Bayer Pharma Aktiengesellschaft, priority 2014, published 2017).

SMILES strings stand for the structures.

The target of this test is T1, GLUT1 (Homo sapiens, UniProt P11166).
T1 construct: endogenous in cells
T1 sequence (P11166 1-492): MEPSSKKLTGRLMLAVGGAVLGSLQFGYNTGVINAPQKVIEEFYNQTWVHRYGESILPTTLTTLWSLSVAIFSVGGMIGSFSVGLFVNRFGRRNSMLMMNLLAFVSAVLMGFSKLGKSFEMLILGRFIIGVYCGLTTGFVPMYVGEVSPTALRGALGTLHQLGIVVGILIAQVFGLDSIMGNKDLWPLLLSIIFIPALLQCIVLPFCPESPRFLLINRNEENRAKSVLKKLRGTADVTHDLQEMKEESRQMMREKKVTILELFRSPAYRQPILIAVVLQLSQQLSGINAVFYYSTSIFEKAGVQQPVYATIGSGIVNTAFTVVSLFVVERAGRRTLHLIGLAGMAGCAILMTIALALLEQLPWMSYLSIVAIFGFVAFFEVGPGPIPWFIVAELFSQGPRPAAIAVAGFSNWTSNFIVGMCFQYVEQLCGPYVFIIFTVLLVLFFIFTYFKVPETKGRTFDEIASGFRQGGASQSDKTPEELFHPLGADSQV
Kind of test: Indirect measurement of GLUT activity by quantification of intracellular ATP levels (glucose induced ATP increase). In kind it is cell-based. To be noted: DLD1 cells; 1 mM glucose, 1 uM Rotenone, 15 min; standardized to cytochalasin B IC50 values; read-out: IC50 regarding glucose induced ATP increase (GLUT1 inhibition). The text has this:
It is well known that a combination of small-molecule inhibitors of mitochondrial electron transport chain and glucose catabolism synergistically suppress ATP production and impair cellular viability (Ulanovskaya et al., 2008, 2011; Liu, et al. 2001). We therefore used DLD1 or CHO-K1 cells in combination with an oxidative phosphorylation inhibitor to identify GLUT inhibitors. Cell lines were maintained in DMEM medium supplemented with 10% FCS and 1% Penicillin-Streptomycin solution and 2% Glutamax. The cells were treated with trypsin and seeded into 384 plates at a density of 4000 cells/well. The cells were then cultured overnight in glucose free media containing 1% FCS to reduce intracellular ATP levels. After 24 h the cells were incubated at 37° C. containing the appropriate glucose or in case of GLUT2 fructose concentration (1 mM and 30 mM respectively) with or without compounds and 1 uM Rotenone for 15 min. The CellTiter-Glo® Luminescent Cell Viability Assay from Promega was then used to measure ATP levels. Compounds able to reduce the ATP Levels within 15 min of glucose application were considered to be glucose uptake inhibitors.
As to `Cc1nn(Cc2ccc(F)cc2)cc1NC(=O)c1cc(C(F)(F)F)nc2ccc(Br)cc12` [Example 4, 6-bromo-N-[1-(4-fluorobenzyl)-3-methyl-1H-pyrazol-4-yl]-2-(trifluoromethyl)quinoline-4-carboxamide], the IC50 stood at 111 nM.
On to `COCCNC(=O)c1nn(Cc2ccc(F)cc2)cc1NC(=O)c1cc(C(F)(F)F)nc2ccc(Br)cc12` [Example 23, 6-bromo-N-{1-(4-fluorobenzyl)-3-[(2-methoxyethyl)carbamoyl]-1H-pyrazol-4-yl}-2-(trifluoromethyl)quinoline-4-carboxamide], for which the IC50 came to 20100 nM.
As to `COc1cc(C(=O)Nc2cn(Cc3ccc(F)cc3)nc2C)c2ccccc2n1` [Example 3, N-[1-(4-fluorobenzyl)-3-methyl-1H-pyrazol-4-yl]-2-methoxyquinoline-4-carboxamide], the IC50 was found to be 150 nM.
On to `Cc1nn(CC2CCCCC2)cc1NC(=O)c1cc(C(N)=O)nc2ccccc12` [Example 57, N^4-[1-(cyclohexylmethyl)-3-methyl-1H-pyrazol-4-yl]quinoline-2,4-dicarboxamide], for which the IC50 was determined as 556 nM.
With `Cc1nn(Cc2ccccc2C#N)cc1NC(=O)c1cc(C(F)(F)F)nc2ccc(Br)cc12` [Example 14, 6-bromo-N-[1-(2-cyanobenzyl)-3-methyl-1H-pyrazol-4-yl]-2-(trifluoromethyl)quinoline-4-carboxamide], the IC50 was 97 nM.
Regarding `CS(=O)(=O)c1ccc(Cn2cc(NC(=O)c3cc(C(F)(F)F)nc4ccc(Br)cc34)c(C(F)(F)F)n2)cc1` [Example 43, 6-bromo-N-{1-[4-(methylsulfonyl)benzyl]-3-(trifluoromethyl)-1H-pyrazol-4-yl}-2-(trifluoromethyl)quinoline-4-carboxamide], the IC50 was determined as 440 nM.
Regarding `O=C(O)c1nn(Cc2ccc(F)cc2)cc1NC(=O)c1cc(C(F)(F)F)nc2ccc(Br)cc12` [Example 18, 4-({[6-bromo-2-(trifluoromethyl)quinolin-4-yl]carbonyl}amino)-1-(4-fluorobenzyl)-1H-pyrazole-3-carboxylic acid], the IC50 was 6.5 nM.
In the case of `CCc1nn(Cc2ccc(C#N)cc2)cc1NC(=O)c1cc(C(N)=O)nc2ccccc12` [Example 60, N^4-[1-(4-cyanobenzyl)-3-ethyl-1H-pyrazol-4-yl]quinoline-2,4-dicarboxamide] it was 23 nM.
As for `CNC(=O)c1nn(Cc2ccc(C#N)cc2)cc1NC(=O)c1cc(C(F)(F)F)nc2ccc(Br)cc12` [Example 27, 6-bromo-N-[1-(4-cyanobenzyl)-3-(methylcarbamoyl)-1H-pyrazol-4-yl]-2-(trifluoromethyl)quinoline-4-carboxamide], the IC50 turned out to be 893 nM.
For `CNC(=O)c1nn(Cc2ccc(F)cc2)cc1NC(=O)c1cc(C(F)(F)F)nc2ccc(Br)cc12` [Example 22, 6-bromo-N-[1-(4-fluorobenzyl)-3-(methylcarbamoyl)-1H-pyrazol-4-yl]-2-(trifluoromethyl)quinoline-4-carboxamide], the IC50 turned out to be 20100 nM.
`N#Cc1ccc(Cn2cc(NC(=O)c3cc(C(F)(F)F)nc4ccc(Br)cc34)c(C(F)(F)F)n2)cc1` [Example 36, 6-bromo-N-[1-(4-cyanobenzyl)-3-(trifluoromethyl)-1H-pyrazol-4-yl]-2-(trifluoromethyl)quinoline-4-carboxamide]: the IC50 was 84 nM.
In the case of `CCc1noc(Cn2cc(NC(=O)c3cc(C(F)(F)F)nc4ccc(Br)cc34)c(C)n2)n1` [Example 64, 6-bromo-N-{1-[(3-ethyl-1,2,4-oxadiazol-5-yl)methyl]-3-methyl-1H-pyrazol-4-yl}-2-(trifluoromethyl)quinoline-4-carboxamide] it was 391 nM; in that of `COc1ccc(Cn2cc(NC(=O)c3cc(C(N)=O)nc4ccccc34)c(C)n2)cc1` [Example 13, N^4-[1-(4-methoxybenzyl)-3-methyl-1H-pyrazol-4-yl]quinoline-2,4-dicarboxamide], 2.3 nM.
As to `Cc1nn(Cc2ccc(F)c(F)c2)cc1NC(=O)c1cc(C(N)=O)nc2ccccc12` [Example 55, N^4-[1-(3,4-difluorobenzyl)-3-methyl-1H-pyrazol-4-yl]quinoline-2,4-dicarboxamide], the IC50 came out at 83 nM.
As to `COc1cc(C(=O)Nc2cn(Cc3ccc(C#N)cc3)nc2C)c2ccccc2n1` [Example 10, N-[1-(4-cyanobenzyl)-3-methyl-1H-pyrazol-4-yl]-2-methoxyquinoline-4-carboxamide], the IC50 was found to be 79 nM.
Consider `N#Cc1ccc(Cn2cc(NC(=O)c3cc(C(F)(F)F)nc4ccc(Br)cc34)c(C(=O)NCCO)n2)cc1` [Example 26, 6-bromo-N-{1-(4-cyanobenzyl)-3-[(2-hydroxyethyl)carbamoyl]-1H-pyrazol-4-yl}-2-(trifluoromethyl)quinoline-4-carboxamide], for which the IC50 is 7040 nM.
In the case of `Cc1cc(Cn2cc(NC(=O)c3cc(C(N)=O)nc4ccccc34)c(C)n2)no1` [Example 74, N^4-{3-methyl-1-[(5-methyl-1,2-oxazol-3-yl)methyl]-1H-pyrazol-4-yl}quinoline-2,4-dicarboxamide], the IC50 turned out to be 153 nM.
The value for `CCS(=O)(=O)N1CCC(Cn2cc(NC(=O)c3cc(C(F)(F)F)nc4ccc(Br)cc34)c(C)n2)CC1` [Example 67, 6-bromo-N-(1-{[1-(ethylsulfonyl)piperidin-4-yl]methyl}-3-methyl-1H-pyrazol-4-yl)-2-(trifluoromethyl)quinoline-4-carboxamide] was 665 nM.
On to `COc1cc(C(=O)Nc2cn(Cc3ccc(C#N)cc3)nc2C(F)(F)F)c2ccccc2n1` [Example 37, N-[1-(4-cyanobenzyl)-3-(trifluoromethyl)-1H-pyrazol-4-yl]-2-methoxyquinoline-4-carboxamide], for which the IC50 is 179 nM.
The value for `Cc1nc(Cn2cc(NC(=O)c3cc(C(F)(F)F)nc4ccc(Br)cc34)c(C)n2)cs1` [Example 70, 6-bromo-N-{3-methyl-1-[(2-methyl-1,3-thiazol-4-yl)methyl]-1H-pyrazol-4-yl}-2-(trifluoromethyl)quinoline-4-carboxamide] was 275 nM; that for `CS(=O)(=O)c1ccc(Cn2cc(NC(=O)c3cc(C(N)=O)nc4cc(F)c(Cl)cc34)c(C(F)(F)F)n2)cc1` [Example 44, 6-chloro-7-fluoro-N^4-{1-[4-(methylsulfonyl)benzyl]-3-(trifluoromethyl)-1H-pyrazol-4-yl}quinoline-2,4-dicarboxamide] was 11 nM; that for `CN(C)C(=O)c1nn(Cc2ccc(C#N)cc2)cc1NC(=O)c1cc(C(F)(F)F)nc2ccc(Br)cc12` [Example 29, 6-bromo-N-[1-(4-cyanobenzyl)-3-(dimethylcarbamoyl)-1H-pyrazol-4-yl]-2-(trifluoromethyl)quinoline-4-carboxamide] was 1700 nM.
Take `Cc1nn(Cc2ccccc2C#N)cc1NC(=O)c1cc(C(N)=O)nc2ccccc12` [Example 16, N^4-[1-(2-cyanobenzyl)-3-methyl-1H-pyrazol-4-yl]quinoline-2,4-dicarboxamide]: the IC50 was 137 nM.
Regarding `CCc1nn(Cc2ccc(C#N)cc2)cc1NC(=O)c1cc(C(N)=O)nc2cc(F)ccc12` [Example 59, N^4-[1-(4-cyanobenzyl)-3-ethyl-1H-pyrazol-4-yl]-7-fluoroquinoline-2,4-dicarboxamide], the IC50 was 34 nM.
In the case of `Cc1nn(Cc2cccc(F)c2)cc1NC(=O)c1cc(C(N)=O)nc2ccccc12` [Example 56, N^4-[1-(3-fluorobenzyl)-3-methyl-1H-pyrazol-4-yl]quinoline-2,4-dicarboxamide], the IC50 was 193 nM.
